# Several values for one entry are separate records, joined by “and”; a condition that tells them apart may be missing. Identical values can stand only once. Toxic doses and inconclusive results are not listed. Where a SMILES comes first, the peptide text is derived from it. [ ]: non-standard residue; d: D form. The star is where a group is joined. Cbz = O=C(OCc1ccccc1)*; Nva = CCC[CH](N)C(=O)O
# Test system: B6C3F1 mice, B16 melanoma ip, median survival T/C
# Experiment: NCI In Vivo Anticancer Drug Screen. Data for tumor model B16 Melanoma (intraperitoneal) in B6C3F1 mice
# Conditions: endpoint: median survival time, higher = longer survival
# Procedure, shortened: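 Tumor-bearing mice received test compound; a separate group got vehicle only. Survival was then compared, with results reported as treated over control.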
# [1] = dose: 25.0 mg/kg/injection, schedule: Q01DX009 (ip), vehicle: saline with Tween-80
# [2] = dose: 50.0 mg/kg/injection, schedule: Q01DX009 (ip), vehicle: saline with Tween-80
# [3] = dose: 200.0 mg/kg/injection, schedule: Q01DX009 (ip), vehicle: saline with Tween-80
# [4] = dose: 12.5 mg/kg/injection, schedule: Q01DX009 (ip), vehicle: saline with Tween-80
# [5] = dose: 12.5 mg/kg/injection, schedule: Q01DX009 (ip), vehicle: saline
# [6] = dose: 25.0 mg/kg/injection, schedule: Q01DX009 (ip), vehicle: saline
# [7] = dose: 50.0 mg/kg/injection, schedule: Q01DX009 (ip), vehicle: saline
# [8] = dose: 100.0 mg/kg/injection, schedule: Q01DX009 (ip), vehicle: saline
# [9] = dose: 200.0 mg/kg/injection, schedule: Q01DX009 (ip), vehicle: saline
# [10] = dose: 400.0 mg/kg/injection, schedule: Q01DX009 (ip), vehicle: saline
# [11] = dose: 25.0 mg/kg/injection, schedule: Q01DX009 (ip), vehicle: Klucel (hydroxypropylcellulose) (HPC)
# [12] = dose: 100.0 mg/kg/injection, schedule: Q01DX009 (ip), vehicle: Klucel (hydroxypropylcellulose) (HPC)
# [13] = dose: 200.0 mg/kg/injection, schedule: Q01DX009 (ip), vehicle: Klucel (hydroxypropylcellulose) (HPC)
# [14] = dose: 100.0 mg/kg/injection, schedule: Q01DX009 (ip), vehicle: water
smiles,measurement,setting,value
OCC1OC(n2cnc3c(SCc4ccccc4)ncnc32)C(O)C1O (stereo not given),T/C,"dose: 37.5 mg/kg/injection, schedule: Q01DX009 (ip), vehicle: saline with Tween-80",171 % of control
same,T/C,"dose: 75.0 mg/kg/injection, schedule: Q01DX009 (ip), vehicle: saline with Tween-80",167 % of control
same,T/C,"dose: 150.0 mg/kg/injection, schedule: Q01DX009 (ip), vehicle: saline with Tween-80",182 % of control
CCC1=C(C)c2cc3[n-]c(cc4nc(cc5[n-]c(cc1n2)c(C)c5CCC(=O)OC)C(CCC(=O)OC)=C4C)c(C)c3CC.[Ni+2],T/C,"dose: 2.4 mg/kg/injection, schedule: Q01DX009 (ip), vehicle: saline with Tween-80",88 % of control
same,T/C,"dose: 4.7 mg/kg/injection, schedule: Q01DX009 (ip), vehicle: saline with Tween-80",88 % of control
same,T/C,"dose: 9.4 mg/kg/injection, schedule: Q01DX009 (ip), vehicle: saline with Tween-80",92 % of control
CN(C)/N=N/c1nc[nH]c1C(N)=O,T/C,"dose: 25.0 mg/kg/injection, schedule: Q01DX009 (ip), vehicle: distilled water + Tween-80",104 % of control
same,T/C,[1],100 % of control
same,T/C,[2],119 % of control
same,T/C,"dose: 60.0 mg/kg/injection, schedule: Q04DX003 (ip), vehicle: carboxymethylcellulose (CMC)",109 % of control
same,T/C,"dose: 60.0 mg/kg/injection, schedule: Q04DX003 (ip), vehicle: saline",120 % of control
same,T/C,"dose: 80.0 mg/kg/injection, schedule: Q04DX003 (ip), vehicle: saline",102 % of control
same,T/C,"dose: 100.0 mg/kg/injection, schedule: Q01DX009 (ip), vehicle: distilled water + Tween-80",109 % of control
same,T/C,"dose: 120.0 mg/kg/injection, schedule: Q04DX003 (ip), vehicle: carboxymethylcellulose (CMC)",113 % of control
same,T/C,"dose: 180.0 mg/kg/injection, schedule: Q04DX003 (ip), vehicle: carboxymethylcellulose (CMC)",118 % of control
same,T/C,"dose: 180.0 mg/kg/injection, schedule: Q04DX003 (ip), vehicle: saline",120 % of control
same,T/C,[3],93 % of control
N#CCCSC(=S)C1CCCC1=N (stereo not given),T/C,[4],103 % of control
same,T/C,[1],106 % of control
same,T/C,[2],98 % of control
same,T/C,"dose: 100.0 mg/kg/injection, schedule: Q01DX009 (ip), vehicle: saline with Tween-80",106 % of control
same,T/C,[3],103 % of control
same,T/C,"dose: 400.0 mg/kg/injection, schedule: Q01DX009 (ip), vehicle: saline with Tween-80",104 % of control
CCN(CC)CCOC(=O)Cc1cccc2c(=O)cc(-c3ccccc3)oc12,T/C,[5],97 % of control and 103 % of control
same,T/C,[6],115 % of control and 101 % of control
same,T/C,[7],109 % of control and 99 % of control
NC(CCC(=O)Nc1ccc(O)cc1)C(=O)O (stereo not given),T/C,[7],117 % of control
same,T/C,[8],120 % of control
same,T/C,[9],103 % of control
same,T/C,[10],124 % of control
O=C1CCC(=O)N1CO,T/C,[7],121 % of control
same,T/C,[8],117 % of control
C=CCOc1cc2c(cc1C(C)c1ccc(OC)cc1)OCO2 (stereo not given),T/C,[11],120 % of control
same,T/C,"dose: 50.0 mg/kg/injection, schedule: Q01DX009 (ip), vehicle: Klucel (hydroxypropylcellulose) (HPC)",124 % of control and 99 % of control
same,T/C,[12],108 % of control
same,T/C,[13],115 % of control
[Na+],T/C,"dose: 25.0 mg/kg/injection, schedule: Q01DX009 (ip), vehicle: water",111 % of control
same,T/C,"dose: 50.0 mg/kg/injection, schedule: Q01DX009 (ip), vehicle: water",91 % of control
same,T/C,[14],92 % of control
same,T/C,"dose: 200.0 mg/kg/injection, schedule: Q01DX009 (ip), vehicle: water",106 % of control
same,T/C,"dose: 400.0 mg/kg/injection, schedule: Q01DX009 (ip), vehicle: water",86 % of control
O=S(=O)(O)O,T/C,"dose: 30.0 mg/kg/injection, schedule: Q01DX009 (ip), vehicle: water",121 % of control and 91 % of control
same,T/C,"dose: 44.0 mg/kg/injection, schedule: Q01DX009 (ip), vehicle: water",108 % of control and 99 % of control
same,T/C,"dose: 67.0 mg/kg/injection, schedule: Q01DX009 (ip), vehicle: water",95 % of control and 102 % of control
same,T/C,[14],97 % of control and 103 % of control
CN(CCN(C)C(=O)CCOS(C)(=O)=O)C(=O)CCOS(C)(=O)=O,T/C,[5],113 % of control
same,T/C,[6],161 % of control
same,T/C,[7],203 % of control and 219 % of control
same,T/C,[8],213 % of control and 263 % of control
same,T/C,[9],102 % of control
CCCC(NC(=O)OCc1ccccc1)C(=O)NC(CC(C)C)C(=O)O (stereo not given) (Cbz-[Nva]-Leu-OH; configuration not given here),T/C,[12],104 % of control
same,T/C,[13],104 % of control
same,T/C,"dose: 400.0 mg/kg/injection, schedule: Q01DX009 (ip), vehicle: Klucel (hydroxypropylcellulose) (HPC)",96 % of control
O=C1CCC2=C3C4CCCC5OC6CC(=O)CCC6=C(C6CCCC(OC2C1)C36)C54 (stereo not given),T/C,[7],102 % of control
same,T/C,[8],102 % of control
same,T/C,[9],97 % of control
same,T/C,[10],96 % of control
NC(N)=NC(N)=Nc1ccc(-c2ccc(N=C(N)N=C(N)N)cc2)cc1,T/C,"dose: 0.78 mg/kg/injection, schedule: Q01DX009 (ip), vehicle: saline with Tween-80",98 % of control
same,T/C,"dose: 1.56 mg/kg/injection, schedule: Q01DX009 (ip), vehicle: saline with Tween-80",107 % of control
same,T/C,"dose: 3.13 mg/kg/injection, schedule: Q01DX009 (ip), vehicle: saline with Tween-80",90 % of control
same,T/C,"dose: 6.25 mg/kg/injection, schedule: Q01DX009 (ip), vehicle: saline with Tween-80",106 % of control
same,T/C,[4],93 % of control
CN(C)N=Nc1ccnc2ccc(Br)cc12,T/C,"dose: 3.13 mg/kg/injection, schedule: Q01DX009 (ip), vehicle: other",109 % of control
same,T/C,"dose: 6.25 mg/kg/injection, schedule: Q01DX009 (ip), vehicle: other",114 % of control
same,T/C,"dose: 12.5 mg/kg/injection, schedule: Q01DX009 (ip), vehicle: other",110 % of control
same,T/C,"dose: 25.0 mg/kg/injection, schedule: Q01DX009 (ip), vehicle: other",114 % of control
same,T/C,"dose: 50.0 mg/kg/injection, schedule: Q01DX009 (ip), vehicle: other",115 % of control
COc1cc2oc3c(C)c(=O)cc4oc(-c5ccccc5)cc(c2c2c1CCC(c1ccccc1)O2)c43 (stereo not given),T/C,"dose: 0.85 mg/kg/injection, schedule: Q01DX009 (ip), vehicle: Klucel (hydroxypropylcellulose) (HPC)",105 % of control
same,T/C,"dose: 1.75 mg/kg/injection, schedule: Q01DX009 (ip), vehicle: Klucel (hydroxypropylcellulose) (HPC)",101 % of control
same,T/C,"dose: 3.5 mg/kg/injection, schedule: Q01DX009 (ip), vehicle: Klucel (hydroxypropylcellulose) (HPC)",103 % of control
same,T/C,"dose: 7.0 mg/kg/injection, schedule: Q01DX009 (ip), vehicle: Klucel (hydroxypropylcellulose) (HPC)",95 % of control and 106 % of control
same,T/C,"dose: 14.0 mg/kg/injection, schedule: Q01DX009 (ip), vehicle: Klucel (hydroxypropylcellulose) (HPC)",97 % of control and 104 % of control
same,T/C,"dose: 28.0 mg/kg/injection, schedule: Q01DX009 (ip), vehicle: Klucel (hydroxypropylcellulose) (HPC)",121 % of control
O=C1C=C[C@H](O)[C@@]2(CO)O[C@@H]12,T/C,"dose: 0.31 mg/kg/injection, schedule: Q01DX009 (ip), vehicle: saline with Tween-80",98 % of control
same,T/C,"dose: 0.62 mg/kg/injection, schedule: Q01DX009 (ip), vehicle: saline with Tween-80",100 % of control
same,T/C,"dose: 1.25 mg/kg/injection, schedule: Q01DX009 (ip), vehicle: saline with Tween-80",102 % of control
same,T/C,"dose: 2.5 mg/kg/injection, schedule: Q01DX009 (ip), vehicle: saline with Tween-80",109 % of control
same,T/C,"dose: 5.0 mg/kg/injection, schedule: Q01DX009 (ip), vehicle: saline with Tween-80",115 % of control and 93 % of control
same,T/C,"dose: 10.0 mg/kg/injection, schedule: Q01DX009 (ip), vehicle: saline with Tween-80",121 % of control
CCN(CC)CCOCCO,T/C,"dose: 12.0 mg/kg/injection, schedule: Q01DX009 (ip), vehicle: saline",105 % of control
same,T/C,[6],116 % of control
same,T/C,[7],98 % of control
same,T/C,[8],90 % of control
O=C([O][Bi]([c]1ccccc1)[c]1ccccc1)c1ccccc1,T/C,"dose: 6.25 mg/kg/injection, schedule: Q01DX009 (ip), vehicle: Klucel (hydroxypropylcellulose) (HPC)",101 % of control
same,T/C,"dose: 12.5 mg/kg/injection, schedule: Q01DX009 (ip), vehicle: Klucel (hydroxypropylcellulose) (HPC)",96 % of control
same,T/C,[11],88 % of control
O=C(O)Cc1cccc2c(=O)cc(-c3ccccc3)oc12,T/C,"dose: 12.5 mg/kg/injection, schedule: Q01DX009 (ip), vehicle: suspension in saline",109 % of control and 103 % of control
same,T/C,"dose: 25.0 mg/kg/injection, schedule: Q01DX009 (ip), vehicle: suspension in saline",115 % of control and 123 % of control
same,T/C,"dose: 50.0 mg/kg/injection, schedule: Q01DX009 (ip), vehicle: suspension in saline",172 % of control
same,T/C,"dose: 100.0 mg/kg/injection, schedule: Q01DX009 (ip), vehicle: suspension in saline",152 % of control and 163 % of control
